According to patent US20260325542A1, “CANCER TARGETING COMPLEX, AND COMPOSITION COMPRISING SAME FOR PREVENTING OR TREATING CANCER” (EWHA UNIVERSITY - INDUSTRY COLLABORATION FOUNDATION, priority 2023, published 2026):

Assays:
[1] = target: T1, BSA (bovine serum albumin) (Bos taurus, UniProt P02769); test: In vitro binding of ECMal-PROTAC to albumin (thiol-maleimide reaction), RP-HPLC; details: ARV-771 140 μM, BSA 200 μM; mixed for more than 60 minutes
T1 construct: free Cys34 thiol reacts with maleimide
Experimental: The binding rate of ECMal-PROTAC from example 1 and albumin was confirmed through RP-HPLC. Specifically, a BSA solution (200 μM) diluted with PBS was co-incubated by mixing it with an ECMal-PROTAC aqueous solution (140 μM) of example 1 at a 1:1 volume ratio. The culture was collected at incubation times of 0 minutes, 5 minutes, 30 minutes, and 60 minutes. It was quenched with mercaptoethanol, and HPLC spectra for each sample were acquired through concentration gradient of the eluent (ACN/H2O, 20/80 to 80/20 (v/v), 30 minutes).
To verify the albumin binding ability of the complex for cancer targeting (ECMal-PROTAC) of example 1, the mixture of BSA and the complex for cancer targeting (ECMal-PROTAC) was analyzed by LC-MS spectrum, and compared with the LC-MS spectrum of free BSA.
FIG. 4 is the HPLC spectrum of a mixture of BSA and the complex for cancer targeting (ECMal-PROTAC). According to this, it can be seen that BSA and the complex for cancer targeting (ECMal-PROTAC) rapidly bind through a thiol-maleimide click chemical reaction. To confirm the albumin binding ability of the complex for cancer targeting (ECMal-PROTAC) of example 1, bovine serum albumin (BSA), which has a structure similar to human serum albumin (HSA), was used for analysis.
At this time, the HPLC spectra were also analyzed for a co-incubation of ARV-771 (140 μM) and BSA solution (200 μM) mixed at a 1:1 volume ratio as a comparative example, and for the ECMal-PROTAC solution and BSA solution alone without any treatment of example 1.
From the HPLC results for the BSA and complex for cancer targeting (ECMal-PROTAC) mixture in Experimental Example 1 and the thiol-blocked BSA and complex for cancer targeting (ECMal-PROTAC) mixture in Experimental Example 2, the reduction in the HPLC peak area associated with the complex for cancer targeting (ECMal-PROTAC) was quantified.

[2] = Body weight and systemic side effects; assay type: in vivo, mouse; details: 10 mg/kg, i.v., once every 3 days for 15 days
Experimental: (§1) The control group was administered saline (10 mg/kg) once every 3 days for 15 days through the tail vein (total 4 administrations). The comparison group was administered ARV-771 (10 mg/kg) once every 3 days for 15 days through the tail vein (total 4 administrations). The example group was administered ECMal-PROTAC 10 mg/kg (wquiv. to ARV-771) of example 1 once every 3 days for 15 days through the tail vein (total 4 administrations).
(§2) Tumor size and body weight were measured every two days for the control group, the comparison group, and the example group.

BRD4 and c-Myc = test: Immunofluorescence of excised cancer tissue (DAPI, anti-BRD4, anti-c-Myc); assay type: in vivo, mouse; details: FIG. 33
Experimental: as §1
FIG. 33 is an image taken with a confocal laser scanning microscope after staining cancer tissue excised from the control group (Control, Saline), the comparison group (ARV-771, intravenous injection), and the example group (ECMal-PROTAC, intravenous injection) with DAPI, anti-BRD4, and anti-c-Myc.

liver tissue = test: TUNEL analysis of liver tissue; assay type: in vivo, mouse; details: administered alone (comparison group)
4T1 tumor = test: In vivo anticancer efficacy, tumor size in 4T1 cancer animal model; parameters: species or system mouse; details: 10 mg/kg, tail vein, once every 3 days for 15 days
Experimental: 5-week-old female Balb/c and Balb/c nu/nu mice were purchased from NaraBio, Inc (Seoul, Republic of Korea). The mice underwent a 2-week acclimatization period before the example. The mice were raised under free-feeding conditions in a breeding room maintained at a temperature of 22±2° C. and humidity of 40-60% during the example. The light and dark cycle was regulated at 12-hour intervals. All examples were conducted in compliance with the relevant laws and institutional guidelines of the KIST Institutional Animal Care and Use Committee (IACUC; Approval No.: 2021-143).
Cancer animal models were prepared by inoculating 1×10^6 4T1 cells into the left thigh of the mice, and raising them until the tumor volume reached 50-80 mm^3.
For the preparation of the control group, the comparison group, and the example group, mice were randomly divided into groups of 5.
as §1, §2

[3] = tested on: organ tissue and cancer tissue; test: H&E histology of major organs and cancer tissue; assay type: in vivo, mouse; details: excised after 15 days
Experimental: as §1
The control group, the comparison group, and the example group were euthanized after 15 days, and major organs (heart, liver, lung, spleen, kidney) and cancer tissue were excised.
Furthermore, to analyze cancer cell apoptosis, TUNEL (terminal deoxynucleotidyl transferase dUTP nick end labeling) analysis was performed on cancer tissue excised from the control group, the comparison group, and the example group. Next, histological analysis was performed by H&E (hematoxylin & eosin) staining of the major organ tissues and cancer tissue of each excised group.
According to FIG. 29, major organ tissue and cancer tissue were excised from the control group, the comparison group, and the example group after 15 days. The excised organ tissue and cancer tissue were stained with H&E (hematoxylin & eosin). The H&E stained tissue was observed using a BX51 optical microscope (Olympus, Tokyo, Japan) and a TCS SP8 confocal laser microscope.

BRD4 = target: T2, BRD4 (Mus musculus, UniProt Q9ESU6); test: Western blot, BRD4 degradation in 4T1 cells; assay type: cell-based; details: 24 hours
T2 construct: Western blot after PROTAC (ARV-771 release, VHL recruiting)
Experimental: (§3) Accordingly, Western blot analysis was performed to confirm the anticancer ability by evaluating the presence or absence of degradation of BRD4 and other related proteins (e.g., c-Myc and Bcl-2) when cancer cells were treated with the complex for cancer targeting (ECMal-PROTAC) of example 1. The complex for cancer targeting (ECMal-PROTAC) of example 1 and ARV-771 were prepared as samples.
(§4) First, 1×10^5 4T1 cells were dispensed into each well of a 6-well culture plate and cultured for 24 hours at 37° C. and 5% carbon dioxide atmosphere. The cell culture medium was supplemented with various concentrations of ARV-771 (0 to 10 μM) or the complex for cancer targeting (ECMal-PROTAC) of example 1 (0 to 10 μM), and cultured at 37° C. for 24 hours. After the culture was completed, the cells were washed 3 times with PBS, and lysed with a lysis buffer containing 1% […]. Cell debris from the recovered lysate was removed by centrifugation at 12,000 rpm for 25 minutes. After recovering the supernatant, the protein amount was measured using a BCA kit. The supernatant was loaded onto a 10% sodium dodecyl sulfate-polyacrylamide gel. Electrophoresis (SDS-PAGE) was performed, followed by blotting onto a polyvinylidene difluoride (PVDF) membrane. After blotting, the PVDF membrane was treated with 5% BSA-containing tris buffered saline containing 0.1% Tween 20 (TBS-T) for 2 hours to suppress the non-specific binding of IgG (immunoglobulin G). It was immediately exposed to a rabbit anti-mouse primary antibody (1,000:1). After treating at 4° C. for 24 hours, the PVDF membrane was washed 3 times with TBS-T and further incubated with an HRP-conjugated mouse anti-rabbit IgG antibody at room temperature for 1 hour. The immunoreactive bands on the PVDF membrane were analyzed through an ECL (enhanced chemiluminescence) system.

4T1 cells = test: CCK-8 assay, toxicity on cancer cells; assay type: cell-based, mouse; details: CCK-8, 48 hours
Experimental: The toxicity of ARV-771 and ECMal-PROTAC on cancer cells was analyzed by the CCK-8 (cell counting kit-8) assay. 4T1 cells were dispensed into a 96-well culture plate at 3×10^3 cells per well. They were cultured for 24 hours at 37° C. and 5% carbon dioxide atmosphere. The cells were treated with different concentrations of ARV-771 (0.01 to 100 μM), the complex for cancer targeting (ECMal-PROTAC) of example 1 (0.01 to 100 μM), and the complex for cancer targeting (Mal-PROTAC) of example 2 (0.01 to 100 μM) separately, and cultured for 48 hours. After exposing each well to 10% CCK-8-containing culture media for 30 minutes, the viability of 4T1 cells treated with ARV-771 or 4T1 cells treated with ECMal-PROTAC or Mal-PROTAC was analyzed with a microplate reader. The change in cell viability according to the concentration of ARV-771 or ECMal-PROTAC or Mal-PROTAC was calculated using GraphPad Prism 8 software (GraphPad Software, San Diego, CA, USA) by fitting the IC50 (haf-maximal inhibitory concentration) value.

c-Myc = test: Western blot, c-Myc level in 4T1 cells; assay type: cell-based, mouse; details: 0 to 10 μM, 24 hours
Experimental: as §3
as §4, with “After blotting, the PVDF membrane was treated with 5% BSA-containing tris buffered saline containing 0.1% Tween 20 (TBS-T) for 2 hours to suppress the non-specific binding of IgG (immunoglobulin G). It was immediately exposed to a rabbit anti-mouse primary antibody (1,000:1). After treating at 4° C. for 24 hours, the PVDF membrane was washed 3 times with TBS-T and further incubated with an HRP-conjugated mouse anti-rabbit IgG antibody at room temperature for 1 hour.” left out

Bcl-2 = test: Western blot, Bcl-2 level in 4T1 cells; assay type: cell-based, mouse; details: 0 to 10 μM, 24 hours
Experimental: as §3
as §4, with “After blotting, the PVDF membrane was treated with 5% BSA-containing tris buffered saline containing 0.1% Tween 20 (TBS-T) for 2 hours to suppress the non-specific binding of IgG (immunoglobulin G). It was immediately exposed to a rabbit anti-mouse primary antibody (1,000:1). After treating at 4° C. for 24 hours, the PVDF membrane was washed 3 times with TBS-T and further incubated with an HRP-conjugated mouse anti-rabbit IgG antibody at room temperature for 1 hour.” left out

[4] = Particle size by DLS before and after binding to albumin; assay type: physicochemical; details: BSA 200 μM and ECMal-PROTAC 140 μM in PBS, 1:1, 30 minutes
Experimental: A BSA solution (200 μM) diluted with PBS was co-incubated by mixing it with an ECMal-PROTAC aqueous solution (140 μM) of example 1 at a 1:1 volume ratio.

T1 sequence (P02769 25-607): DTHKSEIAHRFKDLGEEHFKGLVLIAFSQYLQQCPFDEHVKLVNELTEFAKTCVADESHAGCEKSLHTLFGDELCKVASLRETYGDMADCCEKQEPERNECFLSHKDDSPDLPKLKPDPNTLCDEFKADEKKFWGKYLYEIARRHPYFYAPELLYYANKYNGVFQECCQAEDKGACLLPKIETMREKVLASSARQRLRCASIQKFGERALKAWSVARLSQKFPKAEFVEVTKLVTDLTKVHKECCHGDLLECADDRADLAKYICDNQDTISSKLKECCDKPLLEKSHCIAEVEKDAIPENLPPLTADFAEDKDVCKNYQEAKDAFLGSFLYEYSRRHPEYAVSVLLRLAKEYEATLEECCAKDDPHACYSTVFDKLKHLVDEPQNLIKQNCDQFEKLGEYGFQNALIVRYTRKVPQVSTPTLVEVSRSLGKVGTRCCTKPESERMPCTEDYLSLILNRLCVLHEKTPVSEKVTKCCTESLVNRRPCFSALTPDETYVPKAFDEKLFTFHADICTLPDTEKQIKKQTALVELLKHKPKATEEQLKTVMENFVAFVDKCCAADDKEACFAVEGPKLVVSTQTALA

## Cc1ncsc1-c1ccc([C@H](C)NC(=O)[C@@H]2C[C@@H](O)CN2C(=O)[C@@H](NC(=O)COCCCOCCNC(=O)C[C@@H]2N=C(c3ccc(Cl)cc3)c3c(sc(C)c3C)-n3c(C)nnc32)C(C)(C)C)cc1 [ARV-771, reference compound]
[1]
  interaction with BSA: did not form an interaction
[2]
  systemic side effects: did not show serious systemic side effects
  weight loss: no significant weight loss was observed
BRD4 and c-Myc
  BRD4 degradation in cancer tissue: insufficient to induce apoptosis in cancer tissue
Liver tissue
  effect on normal tissue and cancer tissue: affect both normal tissue and cancer tissue
4T1 tumor
  cancer size vs control (saline): no significant difference
  increase of cancer size from Day 0: 14.8 times
[3]
  damage in cancer tissue (H&E): did not observe serious damage
[3]; liver, lung, spleen, kidney, heart
  damage in organ tissue (H&E): did not observe serious damage
BRD4; Western blot, read-out: DC50 (half-maximal degradation concentration), BRD4
  DC50: 3.38 µM
4T1 cells; Mus musculus, 4T1, FIGS. 15A and 15B, read-out: IC50 against cancer cells
  IC50: 6.38 µM

## Cc1ncsc1-c1ccc([C@H](C)NC(=O)[C@@H]2C[C@@H](OC(=O)CNC(=O)CCOCCOCCNC(=O)CCN3C(=O)C=CC3=O)CN2C(=O)[C@@H](NC(=O)COCCCOCCNC(=O)C[C@@H]2N=C(c3ccc(Cl)cc3)c3c(sc(C)c3C)-n3c(C)nnc32)C(C)(C)C)cc1 [Mal-PROTAC]
c-Myc
  c-Myc level: reduced expression
BRD4; 0 to 10 μM
  degradation of overexpressed BRD4 protein: induce BRD4 deficiency
Bcl-2
  Bcl-2 level: reduced expression
4T1 cells
  IC50 compared to native ARV-771: slight increase in IC50 compared to native ARV-771

## BSA: bovine serum albumin; 98%
[4]
  average particle size: 5.43±1.42 nm
